What all share (test): inhibition of tumour cell growth, NCI panel, 48 h
For assay [1], the system named is HCT-15 colon.
Assay [2] relates to PC-3 prostate.
The subject of assay [3] is SN12C renal.
Assay [4] deals with SW-620 colon.
For assay [5], the system named is UO-31 renal.
Assay [6] has as its system SF-268 CNS.
The test system of assay [7] is MDA-N.
In assay [8] the test system is RXF 393 renal.
Assay [9] concerns UACC-257 melanoma.
Assay [10] has as its system OVCAR-4 ovarian.
Assay [11] concerns SNB-75 CNS.
The test system of assay [12] is HOP-92 NSCLC.
In assay [13] the test system is NCI-H226 lung.
Assay [14] deals with CAKI-1 renal.
Assay [15] concerns OVCAR-8 ovarian.
For assay [16], the system named is 786-0 renal.
The test system of assay [17] is HS 578T breast.
In assay [18] the test system is NCI-H522 lung.
For assay [19], the system named is SR leukemia.

The values that follow come from PubChem BioAssay (NCI).

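Grown in 96-well plates, cells were treated for 48 hours with each compound at five concentrations. Insufficient inhibition: endpoint recorded as highest concentration tested. Definition used: TGI = concentration required for complete inhibition of growth.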

For the compound `Nc1cnc2c(c1)c(=O)nc1n2CCS1`, the TGI in assay [1], in assay [2], in assay [3], in [4], in [5] and in [6] was > 100 µM each time. Further, the TGI in [7], in assay [8], in assay [9], in assay [10], in assay [11] and in assay [12] was > 100 µM in each case. Further, the TGI in [13], in assay [14], in assay [15] and in assay [16] was > 100 µM each time.

Take `CCCCCCCCCC(=O)CC(=O)c1c(O)cc(O)cc1O`: the TGI was 43.8 µM in [1]; 41.8 µM in assay [2]; 37.3 µM in assay [3]; 44.9 µM in assay [17]; > 75 µM in assay [4]; 47.3 µM in [18]. Besides, the TGI in assay [5] worked out at 31.7 µM; in [6], 49.5 µM; in assay [7], 38 µM; in [8], 31.1 µM; in assay [9], 63.4 µM; in [10] it was 35.8 µM. Moreover, the TGI in [11] is 69.6 µM; in assay [12], 44.7 µM; in [13], 36.2 µM; in assay [14], > 75 µM; in assay [15], 36.9 µM; in [16], > 75 µM.

Regarding `COc1ccc(-n2c(=O)n(C)c(=O)n2-c2c(C)c(C)c(C)c(C)c2C)cc1`, the TGI in assay [1], in assay [2], in assay [3], in assay [17], in assay [4] and in assay [18] was > 100 µM throughout. The TGI in assay [5], in assay [6], in [7], in assay [8], in assay [9] and in [10] was > 100 µM in each case. Also, the TGI in [11], in [12], in [13], in assay [14], in assay [15] and in assay [16] was > 100 µM throughout.

Turning to `COc1ccc(C2C(Cl)C(=O)N2NC(=O)c2ccc(N)cc2)cc1OC` (centres undefined), the TGI in assay [1] was determined as 21.3 µM; in assay [2], 25.7 µM; in assay [3] it was 24.5 µM; in assay [4] it was 11.2 µM; in [18], 3.75 µM; in assay [5], 25.7 µM. The TGI in [6] is 36.8 µM; in assay [19], 4.85 µM; in [7], 23.5 µM; in [8] it was 30.4 µM; in assay [9] it was 29.1 µM; in assay [10] it was 19 µM. Further, the TGI in assay [11] amounted to 33.3 µM; in assay [12], 5.07 µM; in [13] it was 38.3 µM; in [14], 6.84 µM; in [15], 16.4 µM; in assay [16], 8.59 µM.

On to `CC(C)(C)OC(=O)N/N=C(/N)c1ccccc1`, for which the TGI in [1], in assay [2], in [3], in assay [18], in [5] and in [6] was > 100 µM in each case. The TGI in [7], in assay [8], in assay [9], in assay [10], in assay [11] and in assay [13] was > 100 µM each time. Moreover, the TGI in assay [14], in [15] and in assay [16] was > 100 µM in each case.

With `COc1ccc2c(c1)CC[C@@H]1[C@@H]2CC[C@]2(C)[C@@H](O)/C(=C/c3ccncc3)C[C@@H]12`, the TGI in assay [1] is 23.6 µM; in assay [2], 25.5 µM; in assay [3], 61.3 µM; in [17], 32 µM; in [4] it was 24.8 µM; in assay [18] it was 30.6 µM. For the same compound, the TGI was 31.5 µM in [5]; 28.2 µM in [6]; 33.2 µM in [7]; 17.9 µM in [8]; 35.6 µM in [9]; > 100 µM in assay [10]. The TGI in [11] was 39.8 µM; in assay [12] it was 28 µM; in [13], 44.7 µM; in assay [14], 34.2 µM; in assay [15], 28.2 µM; in [16] it was 31.7 µM.

With `Cc1cc(Br)cc(C)c1NC(=O)C(=O)C1C(=O)C(CC2C(=O)c3ccccc3C2=O)C(=O)CC1(C)C` (centres undefined), the TGI in [1], in assay [2], in assay [3], in assay [17], in assay [4] and in [18] was > 100 µM each time. Also, the TGI was 92.7 µM in [5]; > 100 µM in assay [6]; > 100 µM in assay [7]; > 100 µM in assay [8]; > 100 µM in [9]; > 100 µM in [10]. For the same compound, the TGI in assay [11], in assay [12], in assay [13], in assay [14], in [15] and in assay [16] was > 100 µM in each case.

For `O=C(CCO)OCCCCCC/C=C\CCCCCC/C=C\CCCCCCCCOC(=O)CCO`, the TGI in assay [1] was 29.1 µM; in [2], 30.8 µM; in assay [3], 31 µM; in assay [4] it was 80.4 µM; in assay [18], 30.1 µM; in assay [5], 32.6 µM. Also, the TGI in assay [6] was determined as 32.5 µM; in assay [7], 33.2 µM; in [8], 35 µM; in [9] it was 30.9 µM; in assay [10], 55.9 µM; in assay [11] it was 34 µM. Also, the TGI was 32.5 µM in [12], 39.3 µM in assay [14], 36.3 µM in assay [15] and 32.5 µM in [16].

With `c1ccc2c3nnc(c2c1)SCCSCCCSCCS3`, the TGI in assay [1], in assay [2], in assay [3], in assay [17], in assay [4] and in [18] was > 100 µM throughout. Moreover, the TGI in [5] is > 100 µM; in assay [6], > 100 µM; in assay [7] it was > 100 µM; in [8], 95.7 µM; in assay [9] it was > 100 µM; in assay [10], 25.8 µM. The TGI in [11] was 18.5 µM; in assay [12], 87.7 µM; in assay [13], > 100 µM; in assay [14], > 100 µM; in [15], > 100 µM; in [16], > 100 µM.

As for `O=C(Nc1ccc(F)cc1)c1cc2ccc(O)cc2oc1=Nc1ccccc1F`, the TGI in assay [1] was 59 µM; in assay [2] it was > 100 µM; in assay [3], > 100 µM; in [17], > 100 µM; in assay [4] it was > 100 µM; in [18], 84 µM. The TGI in [6], in assay [19], in [7], in assay [9], in assay [10] and in [14] was > 100 µM throughout. Also, the TGI is 36.7 µM in [15] and > 100 µM in [16].

Consider `CC[N+](CC)(CC)/C(=N/S(=O)(=O)c1cc(C)c(Cl)cc1S)[N-]S(=O)(=O)c1ccc(Cl)cc1`, for which the TGI in assay [1], in assay [2], in assay [17], in [4], in assay [18] and in assay [5] was > 100 µM each time. In addition, the TGI in [6] is > 100 µM; in assay [7], > 100 µM; in [8] it was > 100 µM; in [9] it was > 100 µM; in [10] it was > 100 µM; in [12], 49.7 µM. Further, the TGI in [13], in [14], in assay [15] and in assay [16] was > 100 µM throughout.

For the compound `O=[N+]([O-])c1ccc(N2N=C(c3ccc4ccccc4c3O)CC2c2ccc(Cl)cc2Cl)c([N+](=O)[O-])c1` (centres undefined), the TGI in assay [1] was > 100 µM; in assay [2], > 100 µM; in assay [3] it was > 100 µM; in assay [17], 95.3 µM; in assay [4], > 100 µM; in assay [18], > 100 µM. The TGI in [5], in assay [6], in [7], in assay [8], in [9] and in assay [10] was > 100 µM in each case. Also, the TGI in assay [11], in assay [13], in assay [14], in assay [15] and in assay [16] was > 100 µM each time.

On to `COc1cccc(-c2cc(=O)c3cccnc3[nH]2)c1`, for which the TGI in assay [1], in assay [2], in assay [3], in assay [17], in assay [4] and in assay [18] was > 100 µM throughout. Besides, the TGI in assay [5] is > 100 µM; in [6], > 100 µM; in [7] it was 0.0394 µM; in assay [8] it was > 100 µM; in assay [9], > 100 µM; in [10], > 100 µM. Further, the TGI in [11], in assay [12], in assay [14], in [15] and in assay [16] was > 100 µM each time.

As for `CCCCOc1ccc(S(=O)(=O)/N=C(\NN)Nc2ccc(Cl)cc2)cc1`, the TGI is > 100 µM in [1]; 33.1 µM in [2]; 38.6 µM in [3]; 82.2 µM in assay [4]; 37.5 µM in assay [5]; 33 µM in assay [6]. Besides, the TGI in assay [19] was 52.6 µM; in [7], > 100 µM; in assay [8], 36.2 µM; in assay [9], 68.7 µM; in assay [10], 45.3 µM; in assay [11], 27 µM. The TGI was 67.2 µM in [12]; > 100 µM in assay [13]; 48.1 µM in assay [14]; 36.2 µM in assay [15]; 31 µM in assay [16].

Consider `CC1OC(OC2C(O[C@@H]3C[C@@H]4CC[C@@H]5[C@H](CC[C@]6(C)[C@@H]7[C@H](C[C@@H]56)O[C@]5(CC[C@@H](C)CO5)[C@H]7C)[C@@]4(C)C[C@H]3O)OC(CO)C(OC3OC(CO)C(O)C(O)C3O)C2O)C(O)C(O)C1O` (some centres undefined), for which the TGI was 4.66 µM in assay [1]; 2.85 µM in assay [2]; 3.05 µM in assay [3]; 4.38 µM in assay [17]; 3.04 µM in [4]; 2.4 µM in assay [18]. In addition, the TGI in [5] is 3.81 µM; in assay [6], 3.51 µM; in [7] it was 3.37 µM; in [8] it was 3.53 µM; in assay [9], 3.3 µM; in assay [10], 4.76 µM. Also, the TGI in assay [11] was found to be 5.76 µM; in assay [12], 5.16 µM; in assay [13], 3.25 µM; in [14], 3.35 µM; in assay [15], 2.9 µM; in [16] it was 3.32 µM.

On to `COC(=O)/C(=C\C(=O)c1ccc(Br)cc1)NN=C(c1ccccc1)c1ccccc1`, for which the TGI in [1], in assay [2], in assay [3], in assay [4], in assay [6] and in [19] was > 10 µM in each case. For the same compound, the TGI in assay [7], in assay [8], in assay [9], in assay [10], in assay [11] and in assay [12] was > 10 µM in each case. Besides, the TGI in assay [14], in assay [15] and in assay [16] was > 10 µM each time.
